pEC50: −log10 of the molar value. Like-named read-outs stand apart in the source and are kept apart here.
Key:
cFos mRNA = cFos mRNA induction in cortex of wild-type mice (quantitative PCR); type: in vivo, C57BL/6J male mice; conditions: one hour after administration
Method: Compound administration and brain tissue collection.
Quantification of cFos mRNA induction. Tissue homogenization was performed using TissueLyser system for 96 well plates (Qiagen). First, frozen cortical samples were thawed, removed from RNAlater, and placed into TissueLyser tubes along with Buffer RLT containing 0.5% Reagent DX and one 5 mm TissueLyser metal bead. The TissueLyser tubes were loaded into a TissueLyser II tissue homogenizer for 3 rounds of homogenization, with each round lasting 5 minutes at 30 Hz bead-beating frequency. Total RNA was purified from the homogenate using RNeasy 96 Plus kit (Qiagen), RNA concentration and A260/A280 ratio were quantified via the Nanodrop (ThermoFisher), and all samples were normalized to 100 ng/μl concentration. RNA was reverse transcribed into cDNA using the Superscript III First-strand synthesis SuperMix Kit (ThermoFisher). For each sample, 6 μl of RNA (600 ng total) was mixed with 1 μL of Oligo dT and 1 μL of annealing buffer and heated to 65° C. for 5 minutes. Next, 10 μL of 2× First-Strand Reaction Mix and 2 μL of the Enzyme mix were added to achieve a total reaction volume of 20 μL. The samples were heated to 50° C. for 50 minutes then 85° C. for 5 minutes to complete cDNA synthesis.
Quantitative PCR was performed on the cDNA samples using Quantitect Multiplex RT-PCR kit (Qiagen) in a 384-well assay format. Each PCR well contained 2 μL of cDNA (60 ng total), 10 μL of RT-PCR mastermix, 1 μL of cFos FAM Taqman probe (Mm00487425_m1 (FAM) #4351368), 1 μL of GAPDH VIC Taqman probe (Mm99999915-g1 (VIC) #4448486), 0.2 μL of Multiplex RT mix and 5.8 μl of RNase-free water. On the ViiA7 Real-Time PCR system (ThermoFisher), the samples were heated to 95° C. for 15 minutes then cycled between 94° C. for 45 seconds and 60° C. for 45 seconds for 45 cycles. cFos Ct values were exported, normalized to GAPDH Ct values, and converted to relative fold change in expression using the delta-delta Ct relative quantification method. cFos fold changes between compound treatments and vehicle were analyzed by one-way ANOVA, followed by Tukey's post-hoc comparisons.

human Cav1.2 [1] = biological target: T1, human Cav1.2 (Homo sapiens, UniProt Q13936)
Method: (§1) 24 hours prior an electrophysiology experiment, doxycycline (1 μg/ml) was added to the growth medium (Table 1), and 25 μM of verapamil was co-applied to prevent calcium influx triggered cell death. Cell confluency should reach 70%-80% right before the experiment.
(§2) To harvest cells (from a T175 cm^2 flask as an example), growth media were removed completely, and the cells were rinsed with 10 mL of D-PBS. D-PBS was aspirated, and 10 mL of Detachin (Genlantis) was added and the plate was placed in a 37° C. incubator for 10 minutes. Detached cells were placed into a 15 mL conical tube and spun at 1000 rpm for 2 minutes. Supernatant was removed, and cells were re-suspended in QPatch complete media (Table 2) to desired cell density of 1.5-3 million cells per QPatch run. Each experimental run uses 1.5 mL of cells.
(§3) The cells suspension was taken to the Sophion QPatch platform that uses whole-cell voltage clamp to measure barium currents conducted through Cav1.2 on single-hole QPlates. […] A dose-response assay protocol was used to determine the maximal fold change of peak inward current (Emax) and potency (EC50) of each compound. The protocol had eight liquid periods. The first liquid period was to stabilize current amplitude, which was monitored using repetitive 200-ms voltage pulses stepping from −80 mV to 0 mV. The second liquid period was to determine baseline current amplitude in the presence of vehicle control, using a single 20-ms voltage pulse stepping from −80 mV to 0 mV. The third through eighth liquid periods were used to ascertain a 6-dose response to compound treatments, also using single 20-ms voltage pulses stepping from −80 mV to 0 mV. The EC50 was generated using the following equation Iconcentration=Ibase+(Ifull−Ibase)*c^n/(XC50^n+c^n), where c is the concentration and n is the Hill coefficient constant. Ifull is the maximal current achievable, and Ibase is 0.

[2] = mouse, in vivo, ip
Method: (§4) Compound administration and brain tissue collection. Wild-type C57BL/6J male mice were obtained from Jackson laboratories (Bar Harbor, Me.). The acute, single-dose effects of Cav1.2 activators of the present disclosure were evaluated in male eight-week old mice (n=6 mice per compound). Each compound was dissolved in 10% PEG300, 10% Solutol, 10% Cremophore EL, and 70% Phosphate Buffered Saline and administered intraperitoneal (i.p.) at a concentration of 1 mg/kg up to 30 mg/kg depending on the compound. Animals were euthanized one hour after compound administration via exsanguination under deep anesthesia. Blood was collected in EDTA tubes for downstream analysis of drug levels. Brains were rapidly removed from the skull, and the cerebral cortex and cerebellum were regionally dissected. Cerebellar samples were snap frozen in liquid nitrogen to assess compound exposure.
(§5) Quantification of compound exposure. Cerebellar tissue samples were homogenized in 4 mL of 20% acetonitrile and 80% Phosphate buffered saline for every 1 g of tissue (5× dilution). Tissue was homogenized using either of the following three methods: hand held probe system, TissueLyser system with 5 mm steel bead at a frequency of 30 s^−1 for 4 min, or OMNI Bead Ruptor Elite homogenizer for 30 seconds to 1 minute depending on tissue type. Tissue samples were added to a 96-well plate (12.5 μL sample) and processed for quantification by mass spectrometry.

human Cav1.2 [3] = biological target: T1, human Cav1.2; assay: Sophion QPatch whole-cell voltage clamp dose-response assay, Cav1.2-HEK293(AUX) cell line (barium currents); conditions: for QPatch Emax: maximal fold change of peak inward current; for pEC50: QPatch EC50, 6-point dose response, 20-ms pulses from −80 mV to 0 mV, n = 1 unless marked (* n = 2, # n = 3)
Method: as §1, §2, §3

human Cav1.2 [4] = biological target: T1, human Cav1.2; assay: QPatch channel biophysics assay (current-voltage relationship, V1/2, tau of inactivation), Cav1.2-HEK293(AUX) cell line; type: cell-based; design: expressed in transfected cells; host or cells: Flp-In 293 T-Rex (HEK293), clone 2-19B, stably transfected with pCMV6-entry-CACNA1C and pcDNA5H/FRT-TO-CACNA2D2-FCS-P2A-CACNB2; conditions: shift of half-way channel activation voltage (V1/2)
Method: Clonal isolation was achieved under Neomycin selection.
Each experimental run uses 1.5 mL of cells.
The protocol had eight liquid periods. […] The protocol had four liquid periods.

[5] = Compound exposure in wild-type mice (cerebellum and blood, mass spectrometry); conditions: male, C57BL/6J, mouse, brain (cerebellum) and whole blood, ip
Method: as §4, §5

T1 sequence (Q13936 whole entry): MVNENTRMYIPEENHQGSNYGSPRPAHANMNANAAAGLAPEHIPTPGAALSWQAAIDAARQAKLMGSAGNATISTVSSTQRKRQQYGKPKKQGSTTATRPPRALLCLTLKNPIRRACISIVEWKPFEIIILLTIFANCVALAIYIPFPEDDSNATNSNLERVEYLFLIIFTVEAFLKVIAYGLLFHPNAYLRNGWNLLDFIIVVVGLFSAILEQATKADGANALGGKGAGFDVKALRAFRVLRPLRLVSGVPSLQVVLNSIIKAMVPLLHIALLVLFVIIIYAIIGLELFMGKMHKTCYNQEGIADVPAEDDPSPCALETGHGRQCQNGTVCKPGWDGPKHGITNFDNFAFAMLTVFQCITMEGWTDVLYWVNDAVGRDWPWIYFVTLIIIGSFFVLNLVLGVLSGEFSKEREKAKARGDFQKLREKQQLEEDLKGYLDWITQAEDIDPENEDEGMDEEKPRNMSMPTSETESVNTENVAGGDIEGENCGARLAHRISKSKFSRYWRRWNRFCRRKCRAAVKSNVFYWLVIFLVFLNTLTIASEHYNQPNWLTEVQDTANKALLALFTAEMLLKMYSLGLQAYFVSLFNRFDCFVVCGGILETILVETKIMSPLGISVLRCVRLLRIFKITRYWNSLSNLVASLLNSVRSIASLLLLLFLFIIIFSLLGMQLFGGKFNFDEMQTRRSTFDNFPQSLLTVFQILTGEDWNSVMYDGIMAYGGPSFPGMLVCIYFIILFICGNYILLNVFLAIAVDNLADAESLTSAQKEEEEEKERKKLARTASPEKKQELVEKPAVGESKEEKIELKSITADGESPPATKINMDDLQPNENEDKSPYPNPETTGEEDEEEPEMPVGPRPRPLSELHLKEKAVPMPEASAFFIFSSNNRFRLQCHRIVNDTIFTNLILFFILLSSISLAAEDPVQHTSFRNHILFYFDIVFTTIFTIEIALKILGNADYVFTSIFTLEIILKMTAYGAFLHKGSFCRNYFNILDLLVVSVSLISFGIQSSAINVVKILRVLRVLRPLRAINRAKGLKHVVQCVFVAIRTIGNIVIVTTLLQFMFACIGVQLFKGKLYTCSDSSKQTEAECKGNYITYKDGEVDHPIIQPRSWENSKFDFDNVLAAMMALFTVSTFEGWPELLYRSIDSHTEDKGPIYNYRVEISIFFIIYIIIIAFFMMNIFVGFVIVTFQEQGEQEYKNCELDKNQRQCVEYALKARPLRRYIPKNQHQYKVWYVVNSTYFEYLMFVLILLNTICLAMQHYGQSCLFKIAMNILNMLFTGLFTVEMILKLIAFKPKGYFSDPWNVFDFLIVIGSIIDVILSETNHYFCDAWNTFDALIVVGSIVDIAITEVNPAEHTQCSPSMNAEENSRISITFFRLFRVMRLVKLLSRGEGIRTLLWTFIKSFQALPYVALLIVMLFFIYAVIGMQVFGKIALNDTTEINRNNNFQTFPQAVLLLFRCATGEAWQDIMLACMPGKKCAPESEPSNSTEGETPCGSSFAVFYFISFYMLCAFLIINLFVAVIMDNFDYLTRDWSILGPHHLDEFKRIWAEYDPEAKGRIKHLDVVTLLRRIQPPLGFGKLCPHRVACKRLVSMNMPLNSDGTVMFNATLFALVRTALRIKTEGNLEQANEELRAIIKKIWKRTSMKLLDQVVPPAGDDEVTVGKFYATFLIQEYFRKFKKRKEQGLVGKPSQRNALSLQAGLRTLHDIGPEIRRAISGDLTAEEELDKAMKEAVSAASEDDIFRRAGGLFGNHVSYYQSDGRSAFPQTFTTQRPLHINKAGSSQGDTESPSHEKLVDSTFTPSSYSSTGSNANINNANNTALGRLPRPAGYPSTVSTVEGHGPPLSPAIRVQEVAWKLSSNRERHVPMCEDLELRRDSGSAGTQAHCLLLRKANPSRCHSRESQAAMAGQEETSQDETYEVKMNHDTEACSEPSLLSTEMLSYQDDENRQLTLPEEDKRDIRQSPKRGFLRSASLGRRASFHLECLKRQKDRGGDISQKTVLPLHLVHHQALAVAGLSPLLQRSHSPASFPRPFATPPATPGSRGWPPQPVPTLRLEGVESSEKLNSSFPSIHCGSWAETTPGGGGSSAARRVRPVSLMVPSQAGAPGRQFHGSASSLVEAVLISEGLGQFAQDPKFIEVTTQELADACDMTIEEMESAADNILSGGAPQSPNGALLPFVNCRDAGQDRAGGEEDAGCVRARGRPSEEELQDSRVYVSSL
T1 sequence (Q9NY47 19-1001 partner limits assumed): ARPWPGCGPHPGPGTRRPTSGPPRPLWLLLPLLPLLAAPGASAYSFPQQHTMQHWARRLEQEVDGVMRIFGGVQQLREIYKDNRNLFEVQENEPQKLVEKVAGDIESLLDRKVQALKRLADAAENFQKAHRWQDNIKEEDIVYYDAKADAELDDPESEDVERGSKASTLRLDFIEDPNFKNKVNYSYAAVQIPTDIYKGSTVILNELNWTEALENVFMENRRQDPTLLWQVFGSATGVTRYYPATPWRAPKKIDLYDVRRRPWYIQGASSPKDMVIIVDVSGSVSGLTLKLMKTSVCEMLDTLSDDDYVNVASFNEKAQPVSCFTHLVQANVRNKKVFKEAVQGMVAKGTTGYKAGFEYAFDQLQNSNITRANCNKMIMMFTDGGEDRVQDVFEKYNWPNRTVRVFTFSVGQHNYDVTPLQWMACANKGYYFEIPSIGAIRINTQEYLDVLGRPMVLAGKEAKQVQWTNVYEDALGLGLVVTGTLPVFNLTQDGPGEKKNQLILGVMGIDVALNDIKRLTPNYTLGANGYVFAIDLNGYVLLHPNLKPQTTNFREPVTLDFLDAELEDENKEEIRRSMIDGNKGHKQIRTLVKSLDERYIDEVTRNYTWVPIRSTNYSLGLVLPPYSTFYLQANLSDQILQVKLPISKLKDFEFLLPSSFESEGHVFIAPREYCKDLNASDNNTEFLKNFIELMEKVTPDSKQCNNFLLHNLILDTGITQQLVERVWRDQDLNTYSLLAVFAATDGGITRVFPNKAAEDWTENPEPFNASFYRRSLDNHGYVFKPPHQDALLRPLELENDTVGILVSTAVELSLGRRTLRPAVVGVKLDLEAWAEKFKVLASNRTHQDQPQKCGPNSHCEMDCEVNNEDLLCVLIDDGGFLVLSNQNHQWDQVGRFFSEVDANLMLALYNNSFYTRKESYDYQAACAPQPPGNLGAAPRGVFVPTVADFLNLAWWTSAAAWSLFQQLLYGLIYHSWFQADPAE
T1 sequence (Q9NY47 1002-1150 partner limits assumed): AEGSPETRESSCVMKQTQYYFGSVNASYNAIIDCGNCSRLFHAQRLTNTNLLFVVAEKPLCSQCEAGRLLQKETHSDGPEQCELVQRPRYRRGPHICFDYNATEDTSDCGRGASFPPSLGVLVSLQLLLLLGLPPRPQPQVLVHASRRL
T1 sequence (Q08289 whole entry partner): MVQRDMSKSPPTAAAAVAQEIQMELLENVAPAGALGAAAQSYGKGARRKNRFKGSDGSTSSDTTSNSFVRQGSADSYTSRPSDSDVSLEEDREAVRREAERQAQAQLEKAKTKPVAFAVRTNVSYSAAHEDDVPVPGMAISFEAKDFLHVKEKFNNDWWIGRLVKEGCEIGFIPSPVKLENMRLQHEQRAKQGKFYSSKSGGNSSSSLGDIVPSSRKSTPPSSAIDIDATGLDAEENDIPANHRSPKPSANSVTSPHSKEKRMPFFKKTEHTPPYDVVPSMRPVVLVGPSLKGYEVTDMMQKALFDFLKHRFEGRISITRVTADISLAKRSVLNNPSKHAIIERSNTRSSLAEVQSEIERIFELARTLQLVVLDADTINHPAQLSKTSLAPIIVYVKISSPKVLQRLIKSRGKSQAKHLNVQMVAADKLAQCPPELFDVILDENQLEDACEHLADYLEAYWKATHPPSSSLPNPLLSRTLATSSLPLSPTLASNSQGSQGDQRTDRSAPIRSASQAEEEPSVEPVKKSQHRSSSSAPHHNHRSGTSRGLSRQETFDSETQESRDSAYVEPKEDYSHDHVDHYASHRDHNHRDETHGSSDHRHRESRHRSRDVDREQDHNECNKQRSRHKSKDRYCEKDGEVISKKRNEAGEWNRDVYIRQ

SMILES: COC(=O)C1=C(C)NC2=C(C(=O)OC2)[C@H]1c1cccc(F)c1C1CC1(F)F (single isomer, unassigned) [Example 2, Methyl (S)-4-(2-((S or R)-2.2-difluorocyclopropyl)-3-fluorophenyl)-2-methyl-5-oxo-1,4,5,7-tetrahydrofuro[3,4-b]pyridine-3-carboxylate]
- % ↑cFOS mRNA cortex (3 mg/kg ip) (cFos mRNA): 23%
- % ↑cFOS mRNA cortex (10 mg/kg ip) (cFos mRNA; 10 mg/kg ip): 203%
- pEC50 (human Cav1.2 [1]): 6.77
- Brain:blood ratio [2]: 3.4
- QPatch Emax (human Cav1.2 [3]): 1.6
- Biophysics voltage shift (human Cav1.2 [4]): −1.9 mV

SMILES: C=C(c1c(F)cc(F)cc1[C@H]1C(C(=O)OC)=C(C)NC2=C1C(=O)OC2)C(F)(F)F (single isomer, unassigned) [Example 19]
- % ↑cFOS mRNA cortex (3 mg/kg ip) (cFos mRNA): 138%
- Kp at 1 h [5]: 2.9
- pEC50 (human Cav1.2 [3]): 7.92
- QPatch Emax (human Cav1.2 [3]): 1.7
- Biophysics voltage shift (human Cav1.2 [4]): −1.8 mV

SMILES: C=C(c1c(F)cccc1[C@H]1C(C(=O)OC)=C(C)NC2=C1C(=O)OC2)C(F)(F)F [Example 16, (S)-methyl 4-(3-fluoro-2-(3,3,3-trifluoroprop-1-en-2-yl)phenyl)-2-methyl-5-oxo-1,4,5,7-tetrahydrofuro[3,4-b]pyridine-3-carboxylate]
- % ↑cFOS mRNA cortex (3 mg/kg ip) (cFos mRNA): 121%
- Kp at 1 h [5]: 0.6
- pEC50 (human Cav1.2 [3]): 8.40
- QPatch Emax (human Cav1.2 [3]): 1.5
- Biophysics voltage shift (human Cav1.2 [4]): −3.3 mV

Reference: patent publication US11453679B2, “Methyl 2-methyl-5-oxo-1,4,5,7-tetradhydrofuro[3,4-b]pyridine-3-carboxylate compounds as Cav1.2 activators” (Novartis AG, priority 2020, dated 2022)
